According to patent US20150005347A1, “NITROGEN-CONTAINING HETEROCYCLIC DERIVATIVE HAVING 2-IMINO GROUP AND PEST CONTROL AGENT INCLUDING THE SAME” (MEIJI SEIKA PHARMA CO., LTD., priority 2012, published 2015):

Tests used:
Assay type in all cases: in vivo
Laodelphax striatella [1] = experiment: Pest control test of Laodelphax striatella, foliar spray on rice seedling; conditions: Laodelphax striatellus, 144 h; foliar treatment at 1.25 ppm; second instar larvae; six days after release; read-out: mortality of larvae
Protocol: Test Example 6 Pest Control Test of Laodelphax striatella
A drug solution of the compound of the present invention at a predetermined concentration, which had been prepared so as to be a 50% acetone water (0.05% Tween20 available), was foliar sprayed to a rice seedling in pot culture. After an air drying process, second instar larvae were released thereto. Thereafter, the larvae were left to stand in a thermostatic chamber (16 hours of light period-8 hours of dark period) at 25° C. […] Test in duplicate.
(§1) Mortality of larvae(%)={number of dead larvae/(number of survived larvae+number of dead larvae)}×100

Plutella xylostella = Plutella xylostella control test, cabbage leaf disk foliar spray; conditions: for mortality at 100 ppm / mortality at 500 ppm: Plutella xylostella, 72 h, second instar larvae, three days after release, read-out: mortality of larvae; for mortality at 100 ppm: foliar treatment at 100 ppm; for mortality at 500 ppm: foliar treatment at 500 ppm; for % Mortality, Test Example1 Plutella xylostella: foliar treatment
Protocol: Test Example 1 Plutella xylostella Control Test
A leaf disk having a diameter of 5.0 cm was cut out from a cabbage in pot culture, and a drug solution of the compound of the present invention at a predetermined concentration, which had been prepared so as to be a 50% acetone water (0.05% Tween20 available), was sprayed to the leaf disk. After an air drying process, second instar larvae were released thereto. Thereafter, the larvae were left to stand in a thermostatic chamber (16 hours of light period-8 hours of dark period) at 25° C. […] Test in duplicate.
mortality larvae(%)={number of dead larvae/(number of survived larvae+number of dead larvae)}×100

[2] = test system: Frankliniella occidentalis; experiment: Pest control test of Frankliniella occidentalis, kidney bean leaf disk foliar spray; conditions: for % Mortality, Test Example7 Frankliniella occidentalis: foliar treatment
Description: Test Example 7 Pest Control Test of Frankliniella occidentalis
A leaf disk having a diameter of 2.8 cm was cut out from a kidney bean in pot culture, and a drug solution of the compound of the present invention at a predetermined concentration, which had been prepared so as to be a 50% acetone water (0.05% Tween20 available), was sprayed to the leaf disk. After an air drying process, first instar larvae were released thereto. Thereafter, the larvae were left to stand in a thermostatic chamber (16 hours of light period-8 hours of dark period) at 25° C. […] Test in duplicate.
as §1

Aphis gossypii = experiment: Pest control test of Aphis gossypii, cucumber leaf disk foliar spray; conditions: for mortality at 100 ppm / mortality at 500 ppm: Aphis gossypii, 72 h, first instar larvae, three days after release; for mortality at 100 ppm: foliar treatment at 100 ppm, read-out: mortality of larvae; for mortality at 500 ppm: foliar treatment at 500 ppm; for % Mortality, Test Example3 Aphis gossypii: foliar treatment
Protocol: Test Example 3 Pest Control Test of Aphis gossypii
A leaf disk having a diameter of 2.0 cm was cut out from a cucumber in pot culture, and a drug solution of the compound of the present invention at a predetermined concentration, which had been prepared so as to be a 50% acetone water (0.05% Tween20 available), was sprayed to the leaf disk. After an air drying process, first instar larvae were released thereto. Thereafter, the larvae were left to stand in a thermostatic chamber (16 hours of light period-8 hours of dark period) at 25° C. […] Test in duplicate.
as §1

Spodoptera litura = experiment: Pest control test against Spodoptera litura, cabbage leaf disk foliar spray; conditions: for % Mortality, Test Example2 Spodoptera litura: foliar treatment, 100 ppm
Protocol: Test Example 2 Pest Control Test Against Spodoptera litura
A leaf disk having a diameter of 5.0 cm was cut out from a cabbage in pot culture, and a drug solution of the compound of the present invention at a predetermined concentration, which had been prepared so as to be a 50% acetone water (0.05% Tween20 available), was sprayed to the leaf disk. After an air drying process, third instar larvae were released thereto. Thereafter, the larvae were left to stand in a thermostatic chamber (16 hours of light period-8 hours of dark period) at 25° C. […] Test in duplicate.
as §1

Musca domestica = experiment: Pest control test of Musca domestica adults, sucrose pledget; conditions: 50 ppm in 40% sucrose liquid; four days after release
Protocol: Test Example 21 Pest Control Test of Musca domestica
A drug solution of the compound of the present invention, which had been adjusted to be 50 ppm with a 40% sucrose liquid, was adsorbed on a pledget, and the pledget was put into a vial. Two adults reared indoors were released thereto. Thereafter, the adults were left to stand indoors at room temperature of 25° C. […] When two adults were all agonized in death, it was judged to be effective.

Laodelphax striatella [3] = experiment: Pest control test of Laodelphax striatella, soil irrigation treatment of rice seedling; conditions: soil irrigation treatment
Description: <Soil Irrigation Treatment Test>
Test Example 10 Pest Control Test of Laodelphax striatellua
A rice seedling in pot culture was subjected to soil irrigation treatment with a drug solution of the compound of the present invention at a predetermined concentration, which had been prepared so as to be a 10% acetone water. Three days after the treatment, ten second instar larvae of Laodelphax striatella were each released thereto. Thereafter, the larvae were left to stand in a thermostatic chamber (16 hours of light period-8 hours of dark period) at 25° C. […] The test was performed in duplicate.
as §1

[4] = test system: imidacloprid susceptible populations of Nilaparvata lugens; experiment: Soil irrigation test, imidacloprid susceptible populations of Nilaparvata lugens; conditions: Rate 0.05 mg/pot
Protocol: (§2) A rice seedling in pot culture was subjected to soil irrigation treatment with a drug solution of the compound of the present invention at a predetermined concentration, which had been prepared so as to be a 10% acetone water. […] Thereafter, the larvae were left to stand in a thermostatic chamber (16 hours of light period-8 hours of dark period) at 25° C. […] The test was performed in duplicate.
as §1
Further, for comparison, the test against some population of Nilaparvata lugens which is highly susceptible to imidacloprid was performed by the same method as described above, and the results thereof are shown in Table 43.
(§3) Further, for the origin of test pests, bugs collected outdoors within the Kumamoto prefecture in 2007 as the drug resistant Nilaparvata lugens, and bugs collected within the Kagoshima prefecture and then successively reared indoors for a long time as the imidacloprid susceptible populations of Nilaparvata lugens were used.

[5] = test system: Nilaparvata lugens exhibiting drug resistance to imidacloprid; conditions: soil irrigation; for Insecticidal effects against Nilaparvata lugens (mortality of larvae %), Drug resistant populations three days after the treatment: Rate 0.05 mg/pot; for insecticidal effects against drug resistant Nilaparvata lugens: imidacloprid-resistant; for mortality of larvae against drug resistant populations compared with susceptible populations of Nilaparvata lugens: imidacloprid-resistant vs susceptible
Protocol: Test Example 18 Pest Control Test of Drug-Resistant Nilaparvata lugens
as §2, §1, §3

[6] = test system: Trigonotylus caelestialium; experiment: Pest control test of Trigonotylus caelestialium, wheat seedling dipping
Description: Test Example 8 Pest Control Test of Trigonotylus caelestialium
Wheat seedling leaves and stems four days after the dissemination of seedlings were dipped for 30 seconds in a drug solution of the compound of the present invention at a predetermined concentration, which had been prepared so as to be a 50% acetone water (0.05% Tween20 available). After an air drying process, the wheat seedling leaves and stems were placed into a glass tube, and two second instar larvae of Trigonotylus caelestialium were released to the same glass tube. After the larvae were released, the tube was lidded to leave the larvae to stand in a thermostatic chamber at 25° C. In order to supply water to the wheat during the test, water was given to the wheat from the bottom of the glass tube.
as §1

Nilaparvata lugens = experiment: Pest control test of Nilaparvata lugens, soil irrigation treatment; conditions: soil irrigation treatment
Protocol: Test Example 12 Pest Control Test of Nilaparvata lugens
A rice seedling in pot culture was subjected to soil irrigation treatment with a drug solution of the compound of the present invention at a predetermined concentration, which had been prepared so as to be a 10% acetone water. Three days after the treatment, ten second instar larvae of Nilaparvata lugens were each released thereto. Thereafter, the larvae were left to stand in a thermostatic chamber (16 hours of light period-8 hours of dark period) at 25° C. […] The test was performed in duplicate.
as §1

SMILES | mortality at 1.25 ppm (Laodelphax striatella [1]) [%] | mortality at 100 ppm (Plutella xylostella) [%] | mortality at 500 ppm (Plutella xylostella) [%] | mortality at 100 ppm (Aphis gossypii) [%] | mortality at 500 ppm (Aphis gossypii) [%] | activity against adults (effective when two adults were all agonized in death) (Musca domestica) | % Mortality, Test Example 10 Laodelphax striatella (Laodelphax striatella [3]; 0.01 mg/pot) [%] | % Mortality, Test Example 10 Laodelphax striatella (Laodelphax striatella [3]; 0.05 mg/pot) [%] | Insecticidal effects against Nilaparvata lugens (mortality of larvae %), Susceptible populations three days after the treatment [4] [%] | Insecticidal effects against Nilaparvata lugens (mortality of larvae %), Drug resistant populations three days after the treatment [5] [%] | insecticidal effects against drug resistant Nilaparvata lugens [5] | mortality of larvae against drug resistant populations compared with susceptible populations of Nilaparvata lugens [5] | % Mortality, Test Example1 Plutella xylostella (Plutella xylostella; 20 ppm) [%] | % Mortality, Test Example1 Plutella xylostella (Plutella xylostella; 100 ppm) [%] | % Mortality, Test Example7 Frankliniella occidentalis ([2]; 100 ppm) [%] | % Mortality, Test Example8 Trigonotylus caelestialium ([6]; 10 ppm) [%] | % Mortality, Test Example3 Aphis gossypii (Aphis gossypii; 1.25 ppm) [%] | % Mortality, Test Example3 Aphis gossypii (Aphis gossypii; 5 ppm) [%] | % Mortality, Test Example 12 Nilaparvata lugens (Nilaparvata lugens; 0.01 mg/pot) [%] | % Mortality, Test Example 12 Nilaparvata lugens (Nilaparvata lugens; 0.05 mg/pot) [%] | also measured
ON=C(/N=c1\ccccn1Cc1ccc(Cl)nc1)C(F)(F)F [Compound 1-499, N-[1-((6-chloropyridin-3-yl)methyl)pyridin-2(1H)-ylidene]-2,2,2-trifluoro-N′-hydroxyacetimidamide] | ≥ 80 | ≥ 80 | ≥ 80 | ≥ 80 | ≥ 80 | – | – | – | – | – | – | – | – | – | – | – | – | – | – | – | mortality at 500 ppm ([2]; Frankliniella occidentalis, 72 h, foliar treatment at 500 ppm, first instar larvae, three days after release, read-out: mortality of larvae): ≥ 80%; mortality at 500 ppm (Spodoptera litura; Spodoptera litura, 72 h, foliar treatment at 500 ppm, third instar larvae, three days after release, read-out: mortality of larvae): ≥ 80%
FC(F)C(=S)N=c1ccccn1Cc1ccc(Cl)nc1 [Compound 1-21] | – | – | – | – | – | all the adults are agonized in death | 20 | 100 | 67 | 50 | high insecticidal effects | equivalent mortality of larvae | 10 | 80 | 90 | 100 | 100 | 100 | 10 | 85 | % Mortality, Test Example7 Frankliniella occidentalis ([2]; 20 ppm): 80%; % Mortality, Test Example8 Trigonotylus caelestialium ([6]; 2 ppm): 67%; % Mortality, Test Example8 Trigonotylus caelestialium ([6]; 50 ppm): 100%; % Mortality, Test Example3 Aphis gossypii (Aphis gossypii; 0.313 ppm): 55%; % Mortality, Test Example3 Aphis gossypii (Aphis gossypii; 20 ppm): 100%; % Mortality, Test Example3 Aphis gossypii (Aphis gossypii; 100 ppm): 100%; % Mortality, Test Example2 Spodoptera litura (Spodoptera litura): 55%
CN=C(/N=c1\ccccn1Cc1ccc(Cl)nc1)C(F)(F)F [Compound 1-42, N-[1-((6-chloropyridin-3-yl)methyl)pyridin-2(1H)-ylidene]-2,2,2-trifluoro-N′-methylacetimidamide] | ≥ 80 | ≥ 80 | ≥ 80 | ≥ 80 | ≥ 80 | all the adults are agonized in death | – | – | – | – | – | – | – | – | – | – | – | – | – | – | –
O=C(ON=C(/N=c1\ccccn1Cc1ccc(Cl)nc1)C(F)(F)F)c1ccccc1 [Compound 1-519, N-(benzoyloxy)-N-[1-((6-chloropyridin-3-yl)methyl)pyridin-2(1H)-ylidene]-2,2,2-trifluoroacetimidamide] | ≥ 80 | ≥ 80 | ≥ 80 | ≥ 80 | ≥ 80 | – | – | – | – | – | – | – | – | – | – | – | – | – | – | – | –
Fc1cc(Cn2ccccc2=NC(=S)C(F)(F)F)cnc1Cl [Compound 5-20] | – | – | – | – | – | all the adults are agonized in death | 52 | 95 | 91 | 100 | high insecticidal effects | equivalent mortality of larvae | 100 | 100 | 50 | 17 | 55 | 100 | 90 | 100 | % Mortality, Test Example 10 Laodelphax striatella (Laodelphax striatella [3]; 0.005 mg/pot): 26%; % Mortality, Test Example1 Plutella xylostella (Plutella xylostella; 5 ppm): 20%; % Mortality, Test Example2 Spodoptera litura (Spodoptera litura): 60%
